Literature values in patent US20130089611A1, “RASAGILINE CITRAMIDE” (TEVA PHARMACEUTICAL INDUSTRIES, LTD., priority 2011, published 2013).

Details: in vivo

C#CCN[C@@H]1CCc2ccccc21 [rasagiline, R(+)-N-propargyl-1-aminoindan]
absolute bioavailability: about 36%
